Data from patent US10300074B2, “Use of inhibitor of apoptosis protein (IAP) antagonists in HIV therapy” (Sanford-Burnham Medical Research Institute, priority 2014, dated 2019).

How the values were obtained:
[1] = target: XIAP BIR1/2 (Homo sapiens (Human), UniProt P98170); assay: XIAP BIR1/2 Ki; type: binding
[2] = target: XIAP BIR3 (Homo sapiens (Human), UniProt P98170); assay: XIAP BIR3 Ki; type: binding
[3] = target: ML-IAP (Homo sapiens (Human), UniProt Q96CA5); assay: ML-IAP Ki; type: binding
[4] = test system: latently infected JLat 10.6 cells; settings: for Activation of HIV transcription, combination versus components alone: in combination with Compound 35, 24 hours; for Reactivation of latent HIV (GFP reporter expression): single agent, 24 hours
[5] = test system: Latently infected Jurkat JLat 10.6 cells; settings: HDAC inhibitor in combination with Compound 35, 36 hours, normalized against background of HDAC inhibitor alone
[6] = test system: HEK 293T cells infected with HIV-VSVg; type: cell-based

Sequence of XIAP BIR3 (P98170 241-356): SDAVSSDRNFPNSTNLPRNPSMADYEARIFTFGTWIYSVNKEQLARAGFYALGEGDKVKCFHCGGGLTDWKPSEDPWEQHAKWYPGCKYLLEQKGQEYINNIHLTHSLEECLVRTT
Sequence of XIAP BIR1/2 (P98170 1-240): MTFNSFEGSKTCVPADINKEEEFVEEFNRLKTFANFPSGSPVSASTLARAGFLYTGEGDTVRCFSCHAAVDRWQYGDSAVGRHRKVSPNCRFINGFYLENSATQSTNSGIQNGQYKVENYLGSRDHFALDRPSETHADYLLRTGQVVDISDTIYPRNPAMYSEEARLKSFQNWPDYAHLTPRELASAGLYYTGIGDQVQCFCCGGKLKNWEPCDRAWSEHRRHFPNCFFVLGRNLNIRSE
Sequence of ML-IAP (Q96CA5 whole entry): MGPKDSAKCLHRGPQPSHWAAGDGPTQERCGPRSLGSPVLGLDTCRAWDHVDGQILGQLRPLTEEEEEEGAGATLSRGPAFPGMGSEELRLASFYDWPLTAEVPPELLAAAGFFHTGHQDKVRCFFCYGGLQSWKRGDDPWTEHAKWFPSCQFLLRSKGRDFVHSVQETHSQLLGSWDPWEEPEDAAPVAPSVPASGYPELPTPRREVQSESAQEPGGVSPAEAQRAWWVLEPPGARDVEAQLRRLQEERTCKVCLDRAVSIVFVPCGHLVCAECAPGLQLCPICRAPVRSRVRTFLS

| SMILES | Ki ([1]; Table B-1) | Ki ([2]; Table B-1) | Ki ([3]; Table B-1) | also measured |
| --- | --- | --- | --- | --- |
| CN[C@@H](C)C(=O)N[C@H]1CCS[C@H]2CC[C@@H](C(=O)N[C@@H]3CCCc4ccccc43)N2C1=O [Compound 34] | > 50 µM | ≤ 25 µM | ≤ 25 µM |  |
| CN[C@@H](C)C(=O)N[C@H]1CCO[C@H]2CC(C)(C)C(C(=O)N[C@@H]3CCCc4ccccc43)N2C1=O (stereo partly drawn) [Compound 17b] |  |  |  | Ki ([1]; Table 2-2): ≤ 25 µM; Ki ([2]; Table 2-2): ≤ 25 µM; Ki ([3]; Table 2-2): ≤ 25 µM |
| Cc1[nH]c2ccccc2c1CCNCc1ccc(/C=C/C(=O)NO)cc1 [Panobinostat, panobinostat] |  |  |  | Activation of HIV transcription, combination versus components alone [4]: greater effect than treatment with any of the components alone |
| CN[C@@H](C)C(=O)N[C@H]1CCO[C@H]2CCC(C(=O)N[C@@H]3CCCc4ccccc43)N2C1=O (stereo partly drawn) [Compound 12] | > 50 µM | ≤ 25 µM | ≤ 25 µM |  |
| CN[C@@H](C)C(=O)N[C@H]1CCO[C@H]2c3ccccc3C(C(=O)N[C@@H]3CCCc4ccccc43)N2C1=O (stereo partly drawn) [Compound 27] | > 50 µM | ≤ 25 µM | ≤ 25 µM |  |
| CN[C@@H](C)C(=O)N[C@H]1CCS[C@H]2CC(C)(C)C(C(=O)N[C@@H]3CCCc4ccccc43)N2C1=O (stereo partly drawn) [Compound 17c] |  |  |  | Ki ([2]; Table 2-2): ≤ 25 µM; Ki ([3]; Table 2-2): ≤ 25 µM |
| CN[C@@H](C)C(=O)N[C@H]1CCO[C@H]2CC(C)(C)[C@@H](C(=O)N[C@@H]3CCCc4ccccc43)N2C1=O [Compound 26] | ≤ 25 µM | ≤ 25 µM | ≤ 25 µM |  |
| CN[C@@H](C)C(=O)N[C@H]1CCO[C@H]2c3ccccc3C(C(=O)N[C@@H]3CCCc4ccccc43)N2C1=O (stereo partly drawn) [Compound 17a] |  |  |  | Ki ([1]; Table 2-2): > 50 µM; Ki ([2]; Table 2-2): ≤ 25 µM; Ki ([3]; Table 2-2): ≤ 25 µM |
| CC[C@H](NC(=O)[C@H](C)NC)C(=O)N1C[C@@H](O)C[C@H]1Cc1c(-c2[nH]c3cc(F)ccc3c2C[C@@H]2C[C@H](O)CN2C(=O)[C@H](CC)NC(=O)[C@H](C)NC)[nH]c2cc(F)ccc12 [TL32711] |  |  |  | Reactivation of latent HIV (GFP reporter expression) [4]: Reactivation of latent HIV in JLat 10.6 cells was achieved |
| CN[C@@H](C)C(=O)N[C@H]1CCS[C@H]2CC[C@H](C(=O)N[C@@H]3CCCc4ccccc43)N2C1=O [Compound 36] | > 50 µM | ≤ 25 µM | ≤ 25 µM |  |
| CN[C@@H](C)C(=O)N[C@@H]1C(=O)N2C(C(=O)NC3CCCc4ccccc43)CC[C@@H]2O[C@@H]1C (stereo partly drawn) [Compound 10] | > 50 µM | ≤ 25 µM | ≤ 25 µM |  |
| CN[C@@H](C)C(=O)N[C@H]1CCS[C@H]2CCC(C(=O)N[C@@H]3CCCc4ccccc43)N2C1=O (stereo partly drawn) [Compound 24] | > 50 µM | ≤ 25 µM | ≤ 25 µM |  |
| CN[C@@H](C)C(=O)N[C@H]1CCO[C@H]2CC3(CC=CC3)C(C(=O)N[C@@H]3CCCc4ccccc43)N2C1=O (stereo partly drawn) [Compound 42] | ≤ 25 µM | ≤ 25 µM | ≤ 25 µM |  |
| CC(=O)NCCCCCCNC(C)=O [HMBA, hexamethylbisacetamide] |  |  |  | Activation of HIV transcription, combination versus components alone [4]: greater effect than treatment with any of the components alone |
| CN[C@@H](C)C(=O)N[C@H]1CCO[C@H]2CC[C@@H](C(=O)N[C@@H]3CCOc4ccccc43)N2C1=O [Compound 32] | > 50 µM | ≤ 25 µM | ≤ 25 µM |  |
| CN(C)c1ccc(C(=O)NCCCCCCC(=O)NO)cc1 [Compound M344, Benzamide, 4-(dimethylamino)-N-[7-(hydroxyamino)-7-oxoheptyl]-] |  |  |  | Group: increase of GFP+ cells [5]: C (C 50-75%) |
| CCC(=O)CCCCC[C@@H]1NC(=O)[C@H]2CCCCN2C(=O)[C@H]([C@@H](C)CC)NC(=O)[C@H](Cc2cn(OC)c3ccccc23)NC1=O [Apicidin] |  |  |  | Group: increase of GFP+ cells [5]: C (C 50-75%) |
| CC(=O)Nc1ccc(C(=O)Nc2ccccc2N)cc1 [CI-994, Benzamide, 4-(acetylamino)-N-(2-aminophenyl)-] |  |  |  | Group: increase of GFP+ cells [5]: A (A 0-25%) |
| CN[C@@H](C)C(=O)N[C@H]1CCS[C@H]2CC(C)(C)C(C(=O)N[C@@H]3CCCc4ccccc43)N2C1=O (stereo partly drawn) [Compound 35] | ≤ 25 µM | ≤ 25 µM | ≤ 25 µM | Viral gene transcription as measured by luciferase expression [6]: enhancement of viral gene transcription, as measured by luciferase expression, was proportional to the loss of BIRC2/cIAP1 protein; Reactivation of latent HIV (GFP reporter expression) [4]: caused reactivation of HIV |
| CN[C@@H](C)C(=O)N[C@H]1CC(=O)N[C@H]2CC(C)(C)C(C(=O)N[C@@H]3CCCc4ccccc43)N2C1=O (stereo partly drawn) [Compound 46] | > 50 µM | ≤ 25 µM | ≤ 25 µM |  |
| Cc1cc(Cl)ccc1OCCCC(=O)NO [Droxinostat] |  |  |  | Group: increase of GFP+ cells [5]: B (B 25-50%) |
| CN[C@@H](C)C(=O)N[C@H]1CCO[C@H]2CC[C@@H](C(=O)N[C@@H]3CCCc4ccccc43)N2C1=O [Compound 33] | > 50 µM | ≤ 25 µM | ≤ 25 µM |  |
| O=C(CCCCCCC(=O)Nc1ccccc1)NO [Vorinostat, vorinostat] |  |  |  | Activation of HIV transcription, combination versus components alone [4]: greater effect than treatment with any of the components alone; Group: increase of GFP+ cells [5]: A (A 0-25%) |
| Cc1ccc(C(=O)c2cc(C=CC(=O)NO)n(C)c2)cc1 [MC-1293, 2-Propenamide, N-hydroxy-3-[1-methyl-4-(4-methylbenzoyl)-1H-pyrrol-2-yl]-] |  |  |  | Group: increase of GFP+ cells [5]: B (B 25-50%) |
| CN[C@@H](C)C(=O)N[C@H]1CCO[C@H]2CCC(C(=O)NC(c3ccccc3)c3ccccc3)N2C1=O (stereo partly drawn) [Compound 14] | > 50 µM | ≤ 25 µM | ≤ 25 µM |  |
| CCCC(=O)OCc1ccc(OC(=O)/C=C(C)/C=C/C=C(C)/C=C/C2=C(C)CCCC2(C)C)cc1 [ATRA-BA Hybrid, Retinoic acid, 4-[(1-oxobutoxy)methyl]phenyl ester] |  |  |  | Group: increase of GFP+ cells [5]: A (A 0-25%) |
